This is an account of results in ChEMBL document CHEMBL5465560, “Selectivity Literature for EUbOPEN Chemogenomic Library” (2024).

Molecules are shown by their SMILES.

Test [1] has as its target High affinity nerve growth factor receptor (Homo sapiens, UniProt P04629). To be noted: at 10 µM.
The target of test [2] is Platelet-derived growth factor receptor alpha (Homo sapiens, UniProt P16234). As to the kind of experiment: Selectivity interaction (KinomeScan (DiscoverX)) EUB0000092b PDGFRA. The conditions noted are these: at 10 µM.
Test [3] addresses Proto-oncogene tyrosine-protein kinase Src (Homo sapiens, UniProt P12931). As to the kind of experiment: Selectivity interaction (KinomeScan (DiscoverX)) EUB0000655a SRC. To be noted: at 10 µM.
Test [4] has as its target G protein-coupled receptor kinase 5 (Homo sapiens, UniProt P34947). As to the kind of experiment: Selectivity interaction (SelectScreen profiling (Invitrogen)) EUB0000607a GRK5. To be noted: at 2 µM.
The target in test [5] is Ribosomal protein S6 kinase alpha-5 (Homo sapiens) (UniProt O75582). As to the kind of experiment: Selectivity interaction (ActivX KiNativ screen (kinase selectivity in THP-1 cell lysates)) EUB0000639a RPS6KA5. The conditions noted are these: lysate. Format: subcellular.
Test [6] concerns the target T1, Serine/threonine-protein kinase 3 (Homo sapiens) (UniProt Q13188).
T1 sequence (whole entry): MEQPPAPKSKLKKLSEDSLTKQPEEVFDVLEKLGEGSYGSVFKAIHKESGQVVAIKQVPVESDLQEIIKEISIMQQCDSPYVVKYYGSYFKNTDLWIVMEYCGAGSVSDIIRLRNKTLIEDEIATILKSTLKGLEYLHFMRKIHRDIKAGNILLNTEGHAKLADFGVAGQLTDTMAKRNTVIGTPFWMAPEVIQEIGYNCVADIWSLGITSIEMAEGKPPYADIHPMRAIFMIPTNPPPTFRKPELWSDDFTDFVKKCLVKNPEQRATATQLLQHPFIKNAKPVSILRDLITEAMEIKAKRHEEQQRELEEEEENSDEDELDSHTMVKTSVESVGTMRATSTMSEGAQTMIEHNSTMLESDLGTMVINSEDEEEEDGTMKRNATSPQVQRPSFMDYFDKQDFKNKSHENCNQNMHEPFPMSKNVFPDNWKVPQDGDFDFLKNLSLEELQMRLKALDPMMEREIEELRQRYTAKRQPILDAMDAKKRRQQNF
As to the kind of experiment: Selectivity interaction (ActivX KiNativ screen (kinase selectivity in THP-1 cell lysates)) EUB0000639a STK3. Format: subcellular. The conditions noted are these: lysate, at 5 µM.

In test [7] the target is Cyclin-dependent kinase 16 (Homo sapiens) (UniProt Q00536). In words: Selectivity interaction (ActivX KiNativ screen (kinase selectivity in THP-1 cell lysates)) EUB0000639a CDK16. The test is classed as subcellular. To be noted: lysate.
Test [8] has as its target Serine/threonine-protein kinase 38-like (Homo sapiens) (UniProt Q9Y2H1). As to the kind of experiment: Selectivity interaction (Kinase panel (DSF assay)) EUB0001559a STK38L. (In DSF a fluorescence change marks the thermal transition of the protein.)
In test [9] the target is Ribosomal protein S6 kinase beta-2 (Homo sapiens) (UniProt Q9UBS0). In words: Selectivity interaction (ActivX KiNativ screen (ex vivo kinase selectivity in human PBMCs)) EUB0001619a RPS6KB2. The test is classed as cell-based. To be noted: PBMC, at 1 µM.
The target in test [10] is T2, Receptor-interacting serine/threonine-protein kinase 4 (Homo sapiens) (UniProt P57078).
T2 sequence (whole entry): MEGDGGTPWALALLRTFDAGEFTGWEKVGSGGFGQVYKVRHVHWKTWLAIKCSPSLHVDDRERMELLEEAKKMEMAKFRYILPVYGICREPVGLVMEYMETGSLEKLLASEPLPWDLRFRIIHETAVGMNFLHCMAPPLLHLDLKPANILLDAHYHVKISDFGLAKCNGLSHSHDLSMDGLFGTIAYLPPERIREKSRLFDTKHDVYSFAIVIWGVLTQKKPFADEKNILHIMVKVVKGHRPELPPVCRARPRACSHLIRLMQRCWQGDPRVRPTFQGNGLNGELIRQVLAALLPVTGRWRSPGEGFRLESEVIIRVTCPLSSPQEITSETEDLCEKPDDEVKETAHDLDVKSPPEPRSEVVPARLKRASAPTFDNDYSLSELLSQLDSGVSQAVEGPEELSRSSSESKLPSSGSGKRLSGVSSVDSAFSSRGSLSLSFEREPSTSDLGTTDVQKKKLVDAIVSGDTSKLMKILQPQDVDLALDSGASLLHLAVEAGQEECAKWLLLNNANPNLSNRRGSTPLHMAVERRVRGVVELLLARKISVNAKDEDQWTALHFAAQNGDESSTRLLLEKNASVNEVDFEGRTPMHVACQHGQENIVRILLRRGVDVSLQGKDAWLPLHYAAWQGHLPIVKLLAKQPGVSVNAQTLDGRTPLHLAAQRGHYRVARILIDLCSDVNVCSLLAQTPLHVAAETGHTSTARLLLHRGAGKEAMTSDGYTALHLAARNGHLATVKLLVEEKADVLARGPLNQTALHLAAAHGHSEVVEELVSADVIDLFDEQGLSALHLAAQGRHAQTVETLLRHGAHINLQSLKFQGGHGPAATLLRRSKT
As to the kind of experiment: Selectivity interaction (KinomeScan (DiscoverX)) EUB0000618a RIPK4. To be noted: at 10 µM.

In test [11] the target is SRSF protein kinase 3 (Homo sapiens) (UniProt Q9UPE1). In words: Selectivity interaction (KinomeScan (DiscoverX)) EUB0000618a SRPK3. The conditions noted are these: at 10 µM.
Test [12] deals with Cyclin-dependent kinase 2 (Homo sapiens, UniProt P24941). In words: Selectivity interaction (KinomeScan (DiscoverX)) EUB0000618a CDK2. The conditions noted are these: at 10 µM.

Ribosomal protein S6 kinase alpha-5 (Homo sapiens), sequence (O75582 whole entry, looked up): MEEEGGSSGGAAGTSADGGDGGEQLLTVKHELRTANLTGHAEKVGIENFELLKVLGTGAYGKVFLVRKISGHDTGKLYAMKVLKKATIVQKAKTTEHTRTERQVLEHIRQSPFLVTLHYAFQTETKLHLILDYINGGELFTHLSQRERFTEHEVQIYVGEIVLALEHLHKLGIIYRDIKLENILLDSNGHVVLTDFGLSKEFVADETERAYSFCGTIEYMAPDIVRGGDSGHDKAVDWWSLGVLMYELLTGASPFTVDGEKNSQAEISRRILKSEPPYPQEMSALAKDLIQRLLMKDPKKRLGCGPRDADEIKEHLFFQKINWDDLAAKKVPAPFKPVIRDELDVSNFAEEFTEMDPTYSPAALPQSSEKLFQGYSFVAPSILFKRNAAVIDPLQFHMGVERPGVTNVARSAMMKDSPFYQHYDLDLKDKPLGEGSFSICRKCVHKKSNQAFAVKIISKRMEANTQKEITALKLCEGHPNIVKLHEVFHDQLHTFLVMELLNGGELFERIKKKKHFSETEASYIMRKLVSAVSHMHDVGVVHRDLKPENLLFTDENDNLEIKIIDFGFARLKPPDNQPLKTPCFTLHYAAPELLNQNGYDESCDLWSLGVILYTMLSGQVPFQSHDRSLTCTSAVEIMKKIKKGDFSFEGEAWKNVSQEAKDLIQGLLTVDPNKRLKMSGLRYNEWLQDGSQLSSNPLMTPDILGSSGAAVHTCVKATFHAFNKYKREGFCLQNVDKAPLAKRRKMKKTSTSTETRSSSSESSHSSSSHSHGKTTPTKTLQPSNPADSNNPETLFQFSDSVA
Cyclin-dependent kinase 16 (Homo sapiens), sequence (Q00536 whole entry): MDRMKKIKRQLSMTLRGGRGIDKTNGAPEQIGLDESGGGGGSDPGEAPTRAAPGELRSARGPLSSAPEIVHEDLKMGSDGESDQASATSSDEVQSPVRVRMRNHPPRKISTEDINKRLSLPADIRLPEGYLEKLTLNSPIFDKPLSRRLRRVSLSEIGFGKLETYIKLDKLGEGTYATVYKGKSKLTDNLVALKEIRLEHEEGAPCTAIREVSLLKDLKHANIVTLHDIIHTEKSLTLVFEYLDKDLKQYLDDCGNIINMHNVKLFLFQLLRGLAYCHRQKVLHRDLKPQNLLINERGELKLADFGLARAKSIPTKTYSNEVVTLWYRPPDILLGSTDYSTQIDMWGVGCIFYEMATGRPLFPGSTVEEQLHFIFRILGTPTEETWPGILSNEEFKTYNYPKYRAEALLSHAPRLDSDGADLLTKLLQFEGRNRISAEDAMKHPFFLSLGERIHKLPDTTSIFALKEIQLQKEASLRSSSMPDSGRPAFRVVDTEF
Platelet-derived growth factor receptor alpha, sequence (P16234 whole entry): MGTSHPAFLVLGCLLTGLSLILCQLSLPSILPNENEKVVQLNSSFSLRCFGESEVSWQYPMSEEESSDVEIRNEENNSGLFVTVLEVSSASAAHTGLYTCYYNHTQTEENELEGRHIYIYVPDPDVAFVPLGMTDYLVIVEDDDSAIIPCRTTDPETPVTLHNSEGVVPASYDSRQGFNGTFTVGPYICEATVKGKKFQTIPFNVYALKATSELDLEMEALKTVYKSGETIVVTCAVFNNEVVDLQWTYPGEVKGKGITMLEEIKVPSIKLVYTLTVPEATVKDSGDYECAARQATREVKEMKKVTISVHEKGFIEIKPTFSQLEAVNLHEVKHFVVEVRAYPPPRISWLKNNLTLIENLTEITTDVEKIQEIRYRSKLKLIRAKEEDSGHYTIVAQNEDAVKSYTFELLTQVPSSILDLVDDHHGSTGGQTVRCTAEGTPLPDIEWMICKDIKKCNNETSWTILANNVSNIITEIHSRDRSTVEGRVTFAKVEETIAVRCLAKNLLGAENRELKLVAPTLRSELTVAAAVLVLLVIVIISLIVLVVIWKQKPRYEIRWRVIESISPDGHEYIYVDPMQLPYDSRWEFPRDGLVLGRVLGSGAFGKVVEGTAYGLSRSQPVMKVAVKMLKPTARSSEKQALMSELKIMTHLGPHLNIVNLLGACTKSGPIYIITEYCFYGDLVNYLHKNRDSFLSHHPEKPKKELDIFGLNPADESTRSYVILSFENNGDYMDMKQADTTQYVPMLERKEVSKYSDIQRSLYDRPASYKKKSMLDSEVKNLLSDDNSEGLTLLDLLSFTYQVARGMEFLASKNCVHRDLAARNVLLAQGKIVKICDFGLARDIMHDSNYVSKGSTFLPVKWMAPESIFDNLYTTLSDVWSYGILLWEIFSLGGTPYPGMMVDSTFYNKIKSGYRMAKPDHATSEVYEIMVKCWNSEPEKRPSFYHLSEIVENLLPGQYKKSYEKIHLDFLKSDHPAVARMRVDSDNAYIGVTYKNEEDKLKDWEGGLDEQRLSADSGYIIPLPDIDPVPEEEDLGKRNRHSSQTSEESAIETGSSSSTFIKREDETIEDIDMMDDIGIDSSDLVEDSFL
SRSF protein kinase 3 (Homo sapiens), sequence (Q9UPE1 whole entry): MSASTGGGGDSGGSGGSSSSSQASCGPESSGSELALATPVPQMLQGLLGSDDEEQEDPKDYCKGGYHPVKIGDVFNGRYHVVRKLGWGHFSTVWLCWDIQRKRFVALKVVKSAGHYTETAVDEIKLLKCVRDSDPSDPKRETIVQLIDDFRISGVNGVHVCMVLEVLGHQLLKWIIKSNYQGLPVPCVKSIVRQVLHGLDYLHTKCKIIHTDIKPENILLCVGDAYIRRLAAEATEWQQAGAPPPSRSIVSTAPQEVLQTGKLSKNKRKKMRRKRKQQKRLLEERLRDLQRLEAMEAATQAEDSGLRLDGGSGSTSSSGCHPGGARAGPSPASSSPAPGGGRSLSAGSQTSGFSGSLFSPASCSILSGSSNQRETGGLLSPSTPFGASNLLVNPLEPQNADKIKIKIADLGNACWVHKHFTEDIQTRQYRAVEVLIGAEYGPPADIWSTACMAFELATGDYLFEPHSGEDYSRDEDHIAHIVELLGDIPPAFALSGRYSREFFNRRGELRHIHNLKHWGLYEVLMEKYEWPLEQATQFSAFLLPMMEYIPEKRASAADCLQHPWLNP
High affinity nerve growth factor receptor, sequence (P04629 33-796 limits assumed): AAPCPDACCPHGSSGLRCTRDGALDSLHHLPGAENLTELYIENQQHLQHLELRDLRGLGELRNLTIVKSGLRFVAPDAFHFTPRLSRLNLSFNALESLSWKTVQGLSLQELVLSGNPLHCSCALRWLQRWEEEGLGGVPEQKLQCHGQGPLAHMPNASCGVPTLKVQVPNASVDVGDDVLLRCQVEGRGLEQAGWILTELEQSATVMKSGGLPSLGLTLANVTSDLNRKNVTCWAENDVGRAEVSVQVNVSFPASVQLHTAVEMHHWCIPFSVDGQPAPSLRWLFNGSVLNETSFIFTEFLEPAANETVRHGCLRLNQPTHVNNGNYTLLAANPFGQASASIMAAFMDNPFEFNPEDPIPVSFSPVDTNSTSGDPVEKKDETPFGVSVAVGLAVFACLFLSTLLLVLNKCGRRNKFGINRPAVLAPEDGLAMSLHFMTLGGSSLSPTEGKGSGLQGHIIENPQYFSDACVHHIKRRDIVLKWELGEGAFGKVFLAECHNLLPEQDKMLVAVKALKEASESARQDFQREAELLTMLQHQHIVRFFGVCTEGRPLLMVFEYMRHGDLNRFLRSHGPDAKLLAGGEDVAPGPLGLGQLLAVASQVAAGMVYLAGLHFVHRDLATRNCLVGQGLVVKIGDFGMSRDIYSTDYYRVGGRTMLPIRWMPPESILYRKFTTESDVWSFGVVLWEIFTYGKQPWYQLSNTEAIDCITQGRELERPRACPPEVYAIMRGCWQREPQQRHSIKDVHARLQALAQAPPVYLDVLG
G protein-coupled receptor kinase 5, sequence (P34947 whole entry, looked up): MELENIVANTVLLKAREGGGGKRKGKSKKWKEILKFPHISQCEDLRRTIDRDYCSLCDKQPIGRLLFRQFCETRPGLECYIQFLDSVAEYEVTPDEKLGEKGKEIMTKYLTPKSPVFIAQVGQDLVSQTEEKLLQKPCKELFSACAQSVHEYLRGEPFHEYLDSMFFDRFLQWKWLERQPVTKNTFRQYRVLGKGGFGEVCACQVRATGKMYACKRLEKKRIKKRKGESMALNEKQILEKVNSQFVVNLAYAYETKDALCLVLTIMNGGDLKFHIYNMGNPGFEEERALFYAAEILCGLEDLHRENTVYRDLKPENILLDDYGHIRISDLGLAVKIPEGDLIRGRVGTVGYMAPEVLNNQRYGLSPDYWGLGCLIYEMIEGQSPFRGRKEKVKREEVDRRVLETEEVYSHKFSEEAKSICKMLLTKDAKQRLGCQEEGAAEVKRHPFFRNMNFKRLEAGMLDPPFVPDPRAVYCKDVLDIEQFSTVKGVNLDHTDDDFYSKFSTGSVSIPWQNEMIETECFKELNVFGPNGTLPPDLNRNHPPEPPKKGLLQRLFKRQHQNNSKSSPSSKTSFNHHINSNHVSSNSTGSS
Ribosomal protein S6 kinase beta-2 (Homo sapiens), sequence (Q9UBS0 whole entry): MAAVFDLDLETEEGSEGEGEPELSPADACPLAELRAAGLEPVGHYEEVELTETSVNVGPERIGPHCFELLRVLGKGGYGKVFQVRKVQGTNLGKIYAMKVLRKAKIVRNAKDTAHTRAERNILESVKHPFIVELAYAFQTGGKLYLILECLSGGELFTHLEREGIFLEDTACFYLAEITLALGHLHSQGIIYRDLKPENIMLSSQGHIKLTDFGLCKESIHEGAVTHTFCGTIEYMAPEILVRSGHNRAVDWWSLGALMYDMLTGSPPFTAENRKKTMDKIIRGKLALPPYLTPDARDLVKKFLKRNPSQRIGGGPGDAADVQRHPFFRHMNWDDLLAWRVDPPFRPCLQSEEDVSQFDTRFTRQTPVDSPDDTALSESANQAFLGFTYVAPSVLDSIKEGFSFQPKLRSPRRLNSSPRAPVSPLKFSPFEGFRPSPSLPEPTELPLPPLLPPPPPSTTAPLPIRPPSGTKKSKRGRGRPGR

Turning to `CCN(CC)CCCCNc1ncc2cc(-c3cc(OC)cc(OC)c3)c(NC(=O)NC(C)(C)C)nc2n1`, in [1], the % of control came out at 100%.

As to `CCC(=O)N1CCN(c2ccc(-n3c(=O)ccc4cnc5ccc(-c6cnc7ccccc7c6)cc5c43)cc2C(F)(F)F)CC1`, the % of control in [2] was determined as 63%.

On to `CN(C)CCOc1ccc(-c2nc(-c3ccncc3)c(-c3ccc4c(c3)CC/C4=N\O)[nH]2)cc1`, for which the % of control in test [3] stood at 77%.

Take `CNC(=O)Nc1ccc(-c2nc(N3CC4CCC(C3)O4)c3cnn(C4CCC5(CC4)OCCO5)c3n2)cc1`: in [4], the % of inhibition was -4%.

For `CC[C@@H]1[C@H](F)C(=O)N[C@@H]1COc1nccc2cc(C(N)=O)c(OC)cc12` [ZIMLOVISERTIB], the % of inhibition is 2.2% in test [5] (at 0.01 µM); -1% in test [5] (at 0.04 µM); -6.1% in [5] (at 0.2 µM); -9.7% in [5] (at 1 µM); -27.5% in test [5] (at 5 µM); -19.6% in [6]. Moreover, the % of inhibition is 16.3% in test [7] (at 0.01 µM); 18.2% in test [7] (at 0.04 µM); 8.4% in test [7] (at 0.2 µM); 15.9% in test [7] (at 1 µM); 47.1% in [7] (at 5 µM).

In turn, `CN(C(=O)c1cnn2cccnc12)c1cc2c(cc1N1CCOCC1)C(=O)N(C[C@@H](F)C(C)(C)O)C2` returned a dTM in test [8] of 0 K.

As to `N#Cc1cccc(-c2c[nH]c3ncnc(N4CCOCC4)c23)c1`, in [9], the % of inhibition was -10%.

Consider `O[C@H]1CC[C@H](Nc2ncc3nc(Nc4c(F)cc(F)cc4F)n([C@H]4CCOC4)c3n2)CC1`, for which the % of control came out at 88% in test [10], 92% in test [11] and 100% in [12].
